Assay results from PMC8694143 (Microbiology Spectrum, 2021).

Key:
Experiment in all cases: MIC determination in broth
Type in all cases: cell-based, Staphylococcus aureus
MRSA ATCC BAA-44 = details: STIP3 variants, highest conc. tested 100 μg/mL; cation-adjusted MH broth, ~10^5 CFU/mL, 2-fold dilution series, 37°C, 16 h
Experimental: (§1) M. luteus ATCC 4698, S. aureus ATCC 29213, a panel of 7 MRSA (ATCC MP-2) strains, which includes ATCC BAA-41, BAA-42, BAA-44, BAA-1683, BAA-2094, BAA-2313, and 33592, and a series of additional bacterial isolates from human and veterinary cases were used in this study (Table S6). Bacterial strains were routinely grown in lysogeny broth (LB: 10 g/L tryptone, 5 g/L yeast extract, 10 g/L NaCl) at 30°C (M. luteus) or 37°C (Staphylococcus spp.) prior to use in specific experiments described below.
(§2) The MICs were measured for bioactive peptides identified from the initial screen. Cation-adjusted Mueller-Hinton (MH) broth was used as the growth medium for MIC determination experiments. Bacterial cultures were diluted to an OD of 5 × 10^−4 (∼10^5 CFU/mL) in 200 μL MH broth mixed with peptides in a 2-fold dilution series arrayed in 96-well plates. Plates were incubated without shaking at 30 or 37°C depending on the organism.

MRSA ATCC 33592 = details: Table S5; STIP3 variants, highest conc. tested 100 μg/mL; cation-adjusted MH broth, ~10^5 CFU/mL, 2-fold dilution series, 37°C, 16 h
Experimental: as §1, §2

S. aureus ATCC 29213 = details: STIP3 variants, highest conc. tested 100 μg/mL; cation-adjusted MH broth, ~10^5 CFU/mL, 2-fold dilution series, 37°C, 16 h
Experimental: as §1, §2

MRSA ATCC BAA-41 = details: STIP3 variants, highest conc. tested 100 μg/mL; cation-adjusted MH broth, ~10^5 CFU/mL, 2-fold dilution series, 37°C, 16 h
Experimental: as §1, §2

MRSA ATCC BAA-2313 = details: STIP3 variants, highest conc. tested 100 μg/mL; cation-adjusted MH broth, ~10^5 CFU/mL, 2-fold dilution series, 37°C, 16 h
Experimental: as §1, §2

MRSA ATCC BAA-1683 = details: STIP3 variants, highest conc. tested 100 μg/mL; cation-adjusted MH broth, ~10^5 CFU/mL, 2-fold dilution series, 37°C, 16 h
Experimental: as §1, §2

MRSA ATCC BAA-2094 = details: STIP3 variants, highest conc. tested 100 μg/mL; cation-adjusted MH broth, ~10^5 CFU/mL, 2-fold dilution series, 37°C, 16 h
Experimental: as §1, §2

MRSA ATCC BAA-42 = details: STIP3 variants, highest conc. tested 100 μg/mL; cation-adjusted MH broth, ~10^5 CFU/mL, 2-fold dilution series, 37°C, 16 h
Experimental: as §1, §2

“TVAGLVKWILATVKKFA [STIP3-15, rationally designed STIP3-1 variant]” was tested, and the “MIC, S. aureus ATCC BAA 44 (SCCmec I)” value (MRSA ATCC BAA-44) was 25 µg/mL, the “MIC, S. aureus ATCC 33592 (SCCmec III)” value (MRSA ATCC 33592) was 12.5 µg/mL and the “MIC, S. aureus ATCC 29213” value (S. aureus ATCC 29213) was 25 µg/mL. The “MIC, S. aureus ATCC BAA 41 (SCCmec II)” value (MRSA ATCC BAA-41) was 50 µg/mL, the “MIC, S. aureus ATCC BAA 2313 (SCCmec XI)” value (MRSA ATCC BAA-2313) was 50 µg/mL and the “MIC, S. aureus ATCC BAA 1683 (SCCmec IV)” value (MRSA ATCC BAA-1683) was 25 µg/mL. The “MIC, S. aureus ATCC BAA 2094 (SCCmec V)” value (MRSA ATCC BAA-2094) was 25 µg/mL and the “MIC, S. aureus ATCC BAA 42 (SCCmec VI)” value (MRSA ATCC BAA-42) was 50 µg/mL.
“TVDGLVKWILATVKKFA [STIP3-17, rationally designed STIP3-1 variant]” was tested, and the “MIC, S. aureus ATCC BAA 44 (SCCmec I)” value (MRSA ATCC BAA-44) was “> (The > symbol indicates that no inhibition was observed at 100 μg/mL for the STIP3 variants)”, the “MIC, S. aureus ATCC 33592 (SCCmec III)” value (MRSA ATCC 33592) was “> (The > symbol indicates that no inhibition was observed at 100 μg/mL for the STIP3 variants)” and the “MIC, S. aureus ATCC 29213” value (S. aureus ATCC 29213) was “> (The > symbol indicates that no inhibition was observed at 100 μg/mL for the STIP3 variants)”. The “MIC, S. aureus ATCC BAA 41 (SCCmec II)” value (MRSA ATCC BAA-41) was “> (The > symbol indicates that no inhibition was observed at 100 μg/mL for the STIP3 variants)”, the “MIC, S. aureus ATCC BAA 2313 (SCCmec XI)” value (MRSA ATCC BAA-2313) was “> (The > symbol indicates that no inhibition was observed at 100 μg/mL for the STIP3 variants)” and the “MIC, S. aureus ATCC BAA 1683 (SCCmec IV)” value (MRSA ATCC BAA-1683) was “> (The > symbol indicates that no inhibition was observed at 100 μg/mL for the STIP3 variants)”. The “MIC, S. aureus ATCC BAA 2094 (SCCmec V)” value (MRSA ATCC BAA-2094) was “> (The > symbol indicates that no inhibition was observed at 100 μg/mL for the STIP3 variants)” and the “MIC, S. aureus ATCC BAA 42 (SCCmec VI)” value (MRSA ATCC BAA-42) was “> (The > symbol indicates that no inhibition was observed at 100 μg/mL for the STIP3 variants)”.
For “TVGGLVKWILAAVKKFA [STIP3-12, rationally designed STIP3-1 variant]”, the “MIC, S. aureus ATCC BAA 44 (SCCmec I)” value (MRSA ATCC BAA-44) was 25 µg/mL, the “MIC, S. aureus ATCC 33592 (SCCmec III)” value (MRSA ATCC 33592) was 25 µg/mL and the “MIC, S. aureus ATCC 29213” value (S. aureus ATCC 29213) was 25 µg/mL. For the same substance, the “MIC, S. aureus ATCC BAA 41 (SCCmec II)” value (MRSA ATCC BAA-41) was 25 µg/mL, the “MIC, S. aureus ATCC BAA 2313 (SCCmec XI)” value (MRSA ATCC BAA-2313) was 25 µg/mL and the “MIC, S. aureus ATCC BAA 1683 (SCCmec IV)” value (MRSA ATCC BAA-1683) was 25 µg/mL. The “MIC, S. aureus ATCC BAA 2094 (SCCmec V)” value (MRSA ATCC BAA-2094) was 50 µg/mL and the “MIC, S. aureus ATCC BAA 42 (SCCmec VI)” value (MRSA ATCC BAA-42) was 25 µg/mL.
“TVGGLVKWILDTFKKFA [STIP3-11, rationally designed STIP3-1 variant]” was tested, and the “MIC, S. aureus ATCC BAA 44 (SCCmec I)” value (MRSA ATCC BAA-44) was 100 µg/mL, the “MIC, S. aureus ATCC 33592 (SCCmec III)” value (MRSA ATCC 33592) was 50 µg/mL and the “MIC, S. aureus ATCC 29213” value (S. aureus ATCC 29213) was 50 µg/mL. For the same substance, the “MIC, S. aureus ATCC BAA 41 (SCCmec II)” value (MRSA ATCC BAA-41) was 50 µg/mL, the “MIC, S. aureus ATCC BAA 2313 (SCCmec XI)” value (MRSA ATCC BAA-2313) was 100 µg/mL and the “MIC, S. aureus ATCC BAA 1683 (SCCmec IV)” value (MRSA ATCC BAA-1683) was 50 µg/mL. The “MIC, S. aureus ATCC BAA 2094 (SCCmec V)” value (MRSA ATCC BAA-2094) was 100 µg/mL and the “MIC, S. aureus ATCC BAA 42 (SCCmec VI)” value (MRSA ATCC BAA-42) was 50 µg/mL.
In the case of “TVGGLVKWILDTVKKFA-NH2 [STIP3-27, C-terminally amidated STIP3-1]”, the “MIC, S. aureus ATCC BAA 44 (SCCmec I)” value (MRSA ATCC BAA-44) is reported as 25 µg/mL, the “MIC, S. aureus ATCC 33592 (SCCmec III)” value (MRSA ATCC 33592) is reported as 50 µg/mL and the “MIC, S. aureus ATCC 29213” value (S. aureus ATCC 29213) is reported as 50 µg/mL. For the same substance, the “MIC, S. aureus ATCC BAA 41 (SCCmec II)” value (MRSA ATCC BAA-41) was 25 µg/mL, the “MIC, S. aureus ATCC BAA 2313 (SCCmec XI)” value (MRSA ATCC BAA-2313) was 50 µg/mL and the “MIC, S. aureus ATCC BAA 1683 (SCCmec IV)” value (MRSA ATCC BAA-1683) was 25 µg/mL. For the same substance, the “MIC, S. aureus ATCC BAA 2094 (SCCmec V)” value (MRSA ATCC BAA-2094) was 25 µg/mL and the “MIC, S. aureus ATCC BAA 42 (SCCmec VI)” value (MRSA ATCC BAA-42) was 25 µg/mL.
For “TVGGLVKWILDVVKKFA [STIP3-9, rationally designed STIP3-1 variant]”, the “MIC, S. aureus ATCC BAA 44 (SCCmec I)” value (MRSA ATCC BAA-44) was 25 µg/mL, the “MIC, S. aureus ATCC 33592 (SCCmec III)” value (MRSA ATCC 33592) was 25 µg/mL and the “MIC, S. aureus ATCC 29213” value (S. aureus ATCC 29213) was 25 µg/mL. The “MIC, S. aureus ATCC BAA 41 (SCCmec II)” value (MRSA ATCC BAA-41) was 35 µg/mL, the “MIC, S. aureus ATCC BAA 2313 (SCCmec XI)” value (MRSA ATCC BAA-2313) was 25 µg/mL and the “MIC, S. aureus ATCC BAA 1683 (SCCmec IV)” value (MRSA ATCC BAA-1683) was 25 µg/mL. The “MIC, S. aureus ATCC BAA 2094 (SCCmec V)” value (MRSA ATCC BAA-2094) was 25 µg/mL and the “MIC, S. aureus ATCC BAA 42 (SCCmec VI)” value (MRSA ATCC BAA-42) was 25 µg/mL.
With “TVGGLVKWILDWVKKFA [STIP3-10, rationally designed STIP3-1 variant]” the “MIC, S. aureus ATCC BAA 44 (SCCmec I)” value (MRSA ATCC BAA-44) was 200 µg/mL, the “MIC, S. aureus ATCC 33592 (SCCmec III)” value (MRSA ATCC 33592) was 100 µg/mL and the “MIC, S. aureus ATCC 29213” value (S. aureus ATCC 29213) was 100 µg/mL. The “MIC, S. aureus ATCC BAA 41 (SCCmec II)” value (MRSA ATCC BAA-41) was 100 µg/mL, the “MIC, S. aureus ATCC BAA 2313 (SCCmec XI)” value (MRSA ATCC BAA-2313) was 50 µg/mL and the “MIC, S. aureus ATCC BAA 1683 (SCCmec IV)” value (MRSA ATCC BAA-1683) was “> (The > symbol indicates that no inhibition was observed at 100 μg/mL for the STIP3 variants)”. The “MIC, S. aureus ATCC BAA 2094 (SCCmec V)” value (MRSA ATCC BAA-2094) was 100 µg/mL and the “MIC, S. aureus ATCC BAA 42 (SCCmec VI)” value (MRSA ATCC BAA-42) was 25 µg/mL.
